Results published in PubChem BioAssay (NCI).
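96-well plates; 48 h exposure; 5 concentrations. Endpoints by linear interpolation between flanking doses. Not reached: highest tested concentration assigned. The concentration for full growth arrest is given as TGI.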

What was measured:
Assay in all cases: NCI anticancer screen, dose series, 48 h
HT29 colon = test system: HT29 colon
LOX IMVI melanoma = test system: LOX IMVI melanoma
A549 NSCLC = test system: A549 NSCLC
UACC-257 melanoma = test system: UACC-257 melanoma
SF-295 CNS = test system: SF-295 CNS
M14 melanoma = test system: M14 melanoma
MDA-MB-231 breast = test system: MDA-MB-231 breast
SN12C renal = test system: SN12C renal
BT-549 breast = test system: BT-549 breast
OVCAR-8 ovarian = test system: OVCAR-8 ovarian
OVCAR-3 ovarian = test system: OVCAR-3 ovarian
ACHN renal = test system: ACHN renal
CAKI-1 renal = test system: CAKI-1 renal
SNB-75 CNS = test system: SNB-75 CNS
DU-145 prostate = test system: DU-145 prostate
MALME-3M melanoma = test system: MALME-3M melanoma
OVCAR-4 ovarian = test system: OVCAR-4 ovarian
MDA-MB-435 = test system: MDA-MB-435
NCI-H460 lung = test system: NCI-H460 lung
UO-31 renal = test system: UO-31 renal
EKVX NSCLC = test system: EKVX NSCLC
HOP-62 NSCLC = test system: HOP-62 NSCLC
TK-10 renal = test system: TK-10 renal
SK-MEL-2 melanoma = test system: SK-MEL-2 melanoma
NCI-H522 lung = test system: NCI-H522 lung
NCI-H23 lung = test system: NCI-H23 lung
SK-OV-3 ovarian = test system: SK-OV-3 ovarian
SNB-19 CNS = test system: SNB-19 CNS
MCF7 breast = test system: MCF7 breast
CCRF-CEM leukemia = test system: CCRF-CEM leukemia
HCT-116 colon = test system: HCT-116 colon
SK-MEL-28 melanoma = test system: SK-MEL-28 melanoma
A498 renal = test system: A498 renal
COLO 205 colon = test system: COLO 205 colon
SK-MEL-5 melanoma = test system: SK-MEL-5 melanoma
HOP-92 NSCLC = test system: HOP-92 NSCLC
PC-3 prostate = test system: PC-3 prostate
786-0 renal = test system: 786-0 renal
SW-620 colon = test system: SW-620 colon
SF-539 CNS = test system: SF-539 CNS
UACC-62 melanoma = test system: UACC-62 melanoma
HL-60(TB) leukemia = test system: HL-60(TB) leukemia
KM12 colon = test system: KM12 colon
SF-268 CNS = test system: SF-268 CNS
OVCAR-5 ovarian = test system: OVCAR-5 ovarian
RXF 393 renal = test system: RXF 393 renal
T-47D breast = test system: T-47D breast
U251 CNS = test system: U251 CNS
HCT-15 colon = test system: HCT-15 colon
K-562 leukemia = test system: K-562 leukemia
NCI/ADR-RES ovarian = test system: NCI/ADR-RES ovarian
HCC-2998 colon = test system: HCC-2998 colon
MDA-N = test system: MDA-N
MOLT-4 leukemia = test system: MOLT-4 leukemia
RPMI-8226 leukemia = test system: RPMI-8226 leukemia
HS 578T breast = test system: HS 578T breast
NCI-H226 lung = test system: NCI-H226 lung
IGROV1 ovarian = test system: IGROV1 ovarian

COc1ccc(-c2nc(SCC(=O)N/N=C/c3ccc(O)c(OC)c3)[nH]c2-c2ccc(OC)cc2)cc1
TGI (HT29 colon): 46.1 µM | TGI (LOX IMVI melanoma): 46.7 µM | TGI (A549 NSCLC): > 100 µM | TGI (UACC-257 melanoma): 69.5 µM | TGI (SF-295 CNS): 46.5 µM | TGI (M14 melanoma): 56.6 µM | TGI (MDA-MB-231 breast): 84.5 µM | TGI (SN12C renal): 41.1 µM | TGI (BT-549 breast): 44.1 µM | TGI (OVCAR-8 ovarian): > 100 µM | TGI (OVCAR-3 ovarian): 48 µM | TGI (ACHN renal): 32.5 µM | TGI (CAKI-1 renal): > 100 µM | TGI (SNB-75 CNS): > 100 µM | TGI (DU-145 prostate): > 100 µM | TGI (MALME-3M melanoma): 81.8 µM | TGI (OVCAR-4 ovarian): > 100 µM | TGI (MDA-MB-435): > 100 µM | TGI (NCI-H460 lung): 75.6 µM | TGI (UO-31 renal): > 100 µM | TGI (EKVX NSCLC): > 100 µM | TGI (HOP-62 NSCLC): 71.7 µM | TGI (TK-10 renal): > 100 µM | TGI (SK-MEL-2 melanoma): 33.5 µM | TGI (NCI-H522 lung): 53.8 µM | TGI (NCI-H23 lung): 49.2 µM | TGI (SK-OV-3 ovarian): > 100 µM | TGI (SNB-19 CNS): > 100 µM | TGI (MCF7 breast): 33.6 µM | TGI (CCRF-CEM leukemia): 92.2 µM | TGI (HCT-116 colon): 33.3 µM | TGI (SK-MEL-28 melanoma): 74.8 µM | TGI (A498 renal): 33.2 µM | TGI (COLO 205 colon): 34.4 µM | TGI (SK-MEL-5 melanoma): 31.7 µM | TGI (HOP-92 NSCLC): 66.1 µM | TGI (PC-3 prostate): > 100 µM | TGI (786-0 renal): 42 µM | TGI (SW-620 colon): > 100 µM | TGI (SF-539 CNS): 36.5 µM | TGI (UACC-62 melanoma): 27.4 µM | TGI (HL-60(TB) leukemia): 32.4 µM | TGI (KM12 colon): > 100 µM | TGI (SF-268 CNS): > 100 µM | TGI (OVCAR-5 ovarian): 63.7 µM | TGI (RXF 393 renal): 36.5 µM | TGI (T-47D breast): > 100 µM | TGI (U251 CNS): 40.8 µM | TGI (HCT-15 colon): 82.8 µM | TGI (K-562 leukemia): 57.8 µM | TGI (NCI/ADR-RES ovarian): > 100 µM | TGI (HCC-2998 colon): 32.3 µM | TGI (MDA-N): 52.3 µM

Cc1ccsc1/C=N/Nc1ccc2ccccc2n1
TGI (HT29 colon): > 100 µM | TGI (LOX IMVI melanoma): > 100 µM | TGI (A549 NSCLC): > 100 µM | TGI (UACC-257 melanoma): 53.2 µM | TGI (SF-295 CNS): 31 µM | TGI (M14 melanoma): > 100 µM | TGI (MOLT-4 leukemia): > 100 µM | TGI (SN12C renal): > 100 µM | TGI (BT-549 breast): > 100 µM | TGI (OVCAR-8 ovarian): > 100 µM | TGI (OVCAR-3 ovarian): > 100 µM | TGI (ACHN renal): > 100 µM | TGI (CAKI-1 renal): > 100 µM | TGI (SNB-75 CNS): > 100 µM | TGI (DU-145 prostate): > 100 µM | TGI (OVCAR-4 ovarian): > 100 µM | TGI (MDA-MB-435): > 100 µM | TGI (UO-31 renal): > 100 µM | TGI (EKVX NSCLC): > 100 µM | TGI (HOP-62 NSCLC): 68.8 µM | TGI (TK-10 renal): 66.2 µM | TGI (SK-MEL-2 melanoma): > 100 µM | TGI (NCI-H23 lung): > 100 µM | TGI (SK-OV-3 ovarian): 48 µM | TGI (SNB-19 CNS): > 100 µM | TGI (MCF7 breast): 32.3 µM | TGI (CCRF-CEM leukemia): > 100 µM | TGI (RPMI-8226 leukemia): > 100 µM | TGI (HS 578T breast): > 100 µM | TGI (NCI-H226 lung): > 100 µM | TGI (HCT-116 colon): > 100 µM | TGI (SK-MEL-28 melanoma): > 100 µM | TGI (A498 renal): > 100 µM | TGI (COLO 205 colon): > 100 µM | TGI (SK-MEL-5 melanoma): 13.2 µM | TGI (HOP-92 NSCLC): 82 µM | TGI (PC-3 prostate): > 100 µM | TGI (786-0 renal): > 100 µM | TGI (IGROV1 ovarian): 79.3 µM | TGI (SW-620 colon): > 100 µM | TGI (UACC-62 melanoma): > 100 µM | TGI (HL-60(TB) leukemia): 40.1 µM | TGI (KM12 colon): > 100 µM | TGI (SF-268 CNS): > 100 µM | TGI (OVCAR-5 ovarian): > 100 µM | TGI (RXF 393 renal): 89.8 µM | TGI (T-47D breast): > 100 µM | TGI (U251 CNS): > 100 µM | TGI (HCT-15 colon): > 100 µM | TGI (K-562 leukemia): > 100 µM | TGI (NCI/ADR-RES ovarian): > 100 µM | TGI (HCC-2998 colon): > 100 µM | TGI (MDA-N): > 100 µM

CCCCn1c(C)c2c(c1C)C(=O)N(CC(O)CN1CCc3ccccc3C1)C2=O (centres undefined)
TGI (HT29 colon): > 100 µM | TGI (LOX IMVI melanoma): > 100 µM | TGI (A549 NSCLC): > 100 µM | TGI (UACC-257 melanoma): > 100 µM | TGI (SF-295 CNS): > 100 µM | TGI (M14 melanoma): > 100 µM | TGI (MOLT-4 leukemia): > 100 µM | TGI (MDA-MB-231 breast): > 100 µM | TGI (SN12C renal): > 100 µM | TGI (BT-549 breast): > 100 µM | TGI (OVCAR-8 ovarian): > 100 µM | TGI (OVCAR-3 ovarian): > 100 µM | TGI (ACHN renal): > 100 µM | TGI (CAKI-1 renal): > 100 µM | TGI (SNB-75 CNS): > 100 µM | TGI (DU-145 prostate): > 100 µM | TGI (MALME-3M melanoma): > 100 µM | TGI (OVCAR-4 ovarian): > 100 µM | TGI (MDA-MB-435): > 100 µM | TGI (NCI-H460 lung): > 100 µM | TGI (UO-31 renal): > 100 µM | TGI (EKVX NSCLC): > 100 µM | TGI (HOP-62 NSCLC): > 100 µM | TGI (TK-10 renal): > 100 µM | TGI (SK-MEL-2 melanoma): 14.8 µM | TGI (NCI-H522 lung): > 100 µM | TGI (NCI-H23 lung): > 100 µM | TGI (SK-OV-3 ovarian): > 100 µM | TGI (SNB-19 CNS): > 100 µM | TGI (MCF7 breast): > 100 µM | TGI (CCRF-CEM leukemia): > 100 µM | TGI (RPMI-8226 leukemia): > 100 µM | TGI (HS 578T breast): > 100 µM | TGI (NCI-H226 lung): > 100 µM | TGI (HCT-116 colon): > 100 µM | TGI (SK-MEL-28 melanoma): > 100 µM | TGI (A498 renal): > 100 µM | TGI (COLO 205 colon): > 100 µM | TGI (SK-MEL-5 melanoma): > 100 µM | TGI (HOP-92 NSCLC): > 100 µM | TGI (PC-3 prostate): > 100 µM | TGI (786-0 renal): > 100 µM | TGI (IGROV1 ovarian): > 100 µM | TGI (SW-620 colon): > 100 µM | TGI (SF-539 CNS): > 100 µM | TGI (UACC-62 melanoma): > 100 µM | TGI (HL-60(TB) leukemia): > 100 µM | TGI (KM12 colon): > 100 µM | TGI (SF-268 CNS): > 100 µM | TGI (OVCAR-5 ovarian): > 100 µM | TGI (RXF 393 renal): > 100 µM | TGI (T-47D breast): > 100 µM | TGI (U251 CNS): > 100 µM | TGI (HCT-15 colon): > 100 µM | TGI (K-562 leukemia): > 100 µM | TGI (NCI/ADR-RES ovarian): > 100 µM | TGI (HCC-2998 colon): > 100 µM | TGI (MDA-N): > 100 µM
